# Measured values reported in US12186307B2, “Methods of treating epilepsy” (YALE UNIVERSITY, priority 2019, dated 2025).
# Values joined by “and” are separate entries in the source; they are usually repeats but may differ in a detail not shown here. Equal entries are not always repeated. “Also recorded” adds a separate entry of the source.
# Assays:
# [1] = test system: Rheb^CA-expressing neurons; experiment: Cell placement, soma size and dendrite (Sholl) analysis in Rheb^CA mouse model of FCM; type: in vivo, CD-1 mice
# Procedure: (§1) All experiments were performed on CD-1 mice (Charles River) of either sex.
# (§2) Each DNA plasmid was diluted in sterile PBS (pH 7.4). Timed pregnant mice (embryonic day, E15) were anesthetized with isoflurane. After exposing the uterine horns, ˜1.5 μl of DNA solution, containing 0.1% fast green added as an injection tracer, was injected into the lateral ventricle via a pulled glass capillary. PBS-soaked tweezer-type electrodes (model 520, BTX) were then positioned on the head of the fetuses across the uterine wall and 6 square-pulses at […] and 50 ms duration every 950 ms were applied using a pulse generator (ECM830, BTX). At birth, mice were prescreened for successful electroporation by detecting the expression of fluorescent protein markers on a fluorescence-enabled stereo microscope (SZX16, Olympus). Morphology and seizure data in different conditions (Flna vs Luciferase shRNA or vehicle vs PTI-125 treatment) were compared between littermate mice. For most experiments, mice received unilateral electroporation, except for experiments in FIG. 4F (P8-P65 PTI-125 treatment on seizures) for which mice received bilateral electroporation.
# (§3) Mice: Mice were transcardially perfused with PBS followed by 4% paraformaldehyde. Brains were then dissected and post-fixed in 4% paraformaldehyde for 24 hours before being transferred to a solution of 3% agarose solution in PBS. These were then sectioned coronally on a vibratome at a thickness of 50 μm. For immunofluorescence, free-floating sections were incubated for 1 hour in a blocking solution (2% bovine serum albumin and 0.1% Triton-X in PBS) at room temperature and then incubated with primary antibodies (Table 5) overnight at 4° C. Sections were washed with PBS+0.05% Tween 20 and then placed in blocking solution containing secondary antibodies for 1 hour at room temperature. All images were taken using an FV1000 confocal microscope (Olympus).
# (§4) Quantification of the number of layer 2/3 neurons in the anterior cingulate cortex, the boundary between layer 2/3 and layer 5 was determined using ER81 staining, which labels layer 5 (FIGS. 14A-14B)Soma size was quantified by outlining the soma of GFP+ cells and measuring the area using ImageJ. Intensity of phospho-S6 and FLNA in sections was quantified by outlining somas of cells and measuring the mean gray value. Then, the values in electroporated cells (in mice) or SMI-311-positive cells (in humans) were normalized to those in non-electroporated cells or unstained cells surrounding electroporated cells to control for variability of staining between sections.
# To analyze neuronal morphology and, in particular dendritic trees, only a few neurons per section were labeled using a Cre-based strategy as previously reported. More specifically, an inducible DsRed2 vector (pCAG-LoxP-stop-LoxP-DsRed2, pCALNL-DsRed2) combined with a Cre vector (pCAG-Cre) was used at very low concentration (1 ng/μl). The Cre plasmid led to DsRed expression in only 3-5 neurons per slice allowing to cleanly analyze the dendritic morphology of individual neurons (FIGS. 15A-15C)Images of DsRed-expressing basal dendrites were acquired in coronal sections using a Fluoview 1000 confocal microscope with a 20× objective. Basal dendrites were traced with simple neurite tracer software (FIJI and Neuronstudio). Sholl analyses were carried out using the number of intersections in 10-μm-increment concentric circles as a measure of morphological complexity. Z stacks from three different square fields of view were taken from three different sections. Analysis was performed blindly with more than four animals and more than 20 cells per condition (see Table 3 for actual n number).
# (§5) PTI-125 was dissolved in saline at a concentration of 2.4 mg/ml. Mice received two intraperitoneal injections of 6 or 12 mg/kg PTI-125 every day. Saline was used as vehicle treatment.
# Rheb^CA-expressing mice = experiment: Video-EEG recording of seizures in Rheb^CA-expressing mice; type: in vivo, CD-1 mice
# Procedure: as §1
# as §2, with “Olympus).” for “Olympus). Morphology and seizure data in different conditions (Flna vs Luciferase shRNA or vehicle vs PTI-125 treatment) were compared between littermate mice. For most experiments, mice received unilateral electroporation, except for experiments in FIG. 4F (P8-P65 PTI-125 treatment on seizures) for which mice received bilateral electroporation.”
# Mice were anesthetized with isoflurane and positioned on a stereotaxic frame using ear bars. A rostro-caudal midline incision was made in the skin to expose the skull surface. Four pilot holes (two bilateral holes 1 mm anterior to bregma and two bilateral holes 5 mm posterior to bregma, each 1.5 mm lateral to sagittal suture), was tapped through the skull to dura using a microdrill (Roboz Surgical Instrument, #RS6300). […] Silver conductive paint (Electron Microscopy Science) was applied around the screw threads to ensure a solid connection with the headmount. The entire implant was insulated using dental acrylic. Mice were allowed to recover in their home cage for seven days before video-EEG monitoring.
# Mice were housed in individual recording chambers in a light-, temperature- and humidity-controlled room during video-EEG monitoring. Mice were freely moving inside the chambers and had ad libitum access to food and water. Synchronous video-EEG recording was acquired using a three-channel EEG tethered system (Pinnacle Technology, cat. no. 8200-K1-iSE3) and Sirenia Acquisition software (Pinnacle Technology). Mice were continuously recorded 24 hours/day for 5-6 consecutive days or 31-45 days.
# Seizure frequency and duration were analyzed using Sirenia Seizure Basic software (Pinnacle Technology). All analyses were performed blinded to experimental groups by at least two investigators. The entire EEG traces were manually reviewed for the occurrence of seizures, defined as a sudden onset of high amplitude activity with a characteristic pattern of progressive frequency and amplitude changes over the course of the event lasting≥10 sec. Seizure onset was defined by high amplitude firing>2× baseline and seizure termination was defined by a return to baseline activity. Video data were inspected for behavioral correlates including myoclonic jerks, tonic-clonic activities, convulsions, and loss of postural control (rearing and falling) and were used as secondary verification of seizures. For each individual animal, mean number of seizures per day was obtained by dividing the total number of seizures by the total number of recording hours and multiplied by 24.
# Saline was used as vehicle treatment.
# phospho-S6 = experiment: Phospho-S6 (read-out of mTORC1 activity) immunostaining / immunoblot in mouse cortex; type: in vivo, CD-1 mice
# Procedure: as §3, §4
# Human and mouse samples were lysed in RIPA buffer (Thermo fisher, #89900) with protease/phosphatase inhibitor cocktail (Cell Signaling Technology, #5872), 5 mM EDTA, and 20 units/ml DNase I (Roche). All lysates were run on Tris-glycine gels (Bio-Rad, #456-1086 for mouse samples and #456-1046 for human samples). Proteins were transferred to PVDF and blocked in 5% milk and incubated with primary antibodies (concentrations of primary antibody are listed in Table 5). HRP-conjugated anti-rabbit or anti-mouse were used as secondary antibodies. Phosphorylated and total proteins were blotted on the same membrane after stripping (Thermo fisher, #21059). […]
# [2] = Body weight during treatment of Rheb^CA mice; type: in vivo, CD-1 mice; conditions: 12 mg/kg i.p. twice daily, P8-P60
# Procedure: as §1, §5
# native FLNA = native FLNA (Homo sapiens, UniProt P21333); conditions: reported; cited from earlier work
# native FLNA, sequence (P21333 whole entry, species assumed): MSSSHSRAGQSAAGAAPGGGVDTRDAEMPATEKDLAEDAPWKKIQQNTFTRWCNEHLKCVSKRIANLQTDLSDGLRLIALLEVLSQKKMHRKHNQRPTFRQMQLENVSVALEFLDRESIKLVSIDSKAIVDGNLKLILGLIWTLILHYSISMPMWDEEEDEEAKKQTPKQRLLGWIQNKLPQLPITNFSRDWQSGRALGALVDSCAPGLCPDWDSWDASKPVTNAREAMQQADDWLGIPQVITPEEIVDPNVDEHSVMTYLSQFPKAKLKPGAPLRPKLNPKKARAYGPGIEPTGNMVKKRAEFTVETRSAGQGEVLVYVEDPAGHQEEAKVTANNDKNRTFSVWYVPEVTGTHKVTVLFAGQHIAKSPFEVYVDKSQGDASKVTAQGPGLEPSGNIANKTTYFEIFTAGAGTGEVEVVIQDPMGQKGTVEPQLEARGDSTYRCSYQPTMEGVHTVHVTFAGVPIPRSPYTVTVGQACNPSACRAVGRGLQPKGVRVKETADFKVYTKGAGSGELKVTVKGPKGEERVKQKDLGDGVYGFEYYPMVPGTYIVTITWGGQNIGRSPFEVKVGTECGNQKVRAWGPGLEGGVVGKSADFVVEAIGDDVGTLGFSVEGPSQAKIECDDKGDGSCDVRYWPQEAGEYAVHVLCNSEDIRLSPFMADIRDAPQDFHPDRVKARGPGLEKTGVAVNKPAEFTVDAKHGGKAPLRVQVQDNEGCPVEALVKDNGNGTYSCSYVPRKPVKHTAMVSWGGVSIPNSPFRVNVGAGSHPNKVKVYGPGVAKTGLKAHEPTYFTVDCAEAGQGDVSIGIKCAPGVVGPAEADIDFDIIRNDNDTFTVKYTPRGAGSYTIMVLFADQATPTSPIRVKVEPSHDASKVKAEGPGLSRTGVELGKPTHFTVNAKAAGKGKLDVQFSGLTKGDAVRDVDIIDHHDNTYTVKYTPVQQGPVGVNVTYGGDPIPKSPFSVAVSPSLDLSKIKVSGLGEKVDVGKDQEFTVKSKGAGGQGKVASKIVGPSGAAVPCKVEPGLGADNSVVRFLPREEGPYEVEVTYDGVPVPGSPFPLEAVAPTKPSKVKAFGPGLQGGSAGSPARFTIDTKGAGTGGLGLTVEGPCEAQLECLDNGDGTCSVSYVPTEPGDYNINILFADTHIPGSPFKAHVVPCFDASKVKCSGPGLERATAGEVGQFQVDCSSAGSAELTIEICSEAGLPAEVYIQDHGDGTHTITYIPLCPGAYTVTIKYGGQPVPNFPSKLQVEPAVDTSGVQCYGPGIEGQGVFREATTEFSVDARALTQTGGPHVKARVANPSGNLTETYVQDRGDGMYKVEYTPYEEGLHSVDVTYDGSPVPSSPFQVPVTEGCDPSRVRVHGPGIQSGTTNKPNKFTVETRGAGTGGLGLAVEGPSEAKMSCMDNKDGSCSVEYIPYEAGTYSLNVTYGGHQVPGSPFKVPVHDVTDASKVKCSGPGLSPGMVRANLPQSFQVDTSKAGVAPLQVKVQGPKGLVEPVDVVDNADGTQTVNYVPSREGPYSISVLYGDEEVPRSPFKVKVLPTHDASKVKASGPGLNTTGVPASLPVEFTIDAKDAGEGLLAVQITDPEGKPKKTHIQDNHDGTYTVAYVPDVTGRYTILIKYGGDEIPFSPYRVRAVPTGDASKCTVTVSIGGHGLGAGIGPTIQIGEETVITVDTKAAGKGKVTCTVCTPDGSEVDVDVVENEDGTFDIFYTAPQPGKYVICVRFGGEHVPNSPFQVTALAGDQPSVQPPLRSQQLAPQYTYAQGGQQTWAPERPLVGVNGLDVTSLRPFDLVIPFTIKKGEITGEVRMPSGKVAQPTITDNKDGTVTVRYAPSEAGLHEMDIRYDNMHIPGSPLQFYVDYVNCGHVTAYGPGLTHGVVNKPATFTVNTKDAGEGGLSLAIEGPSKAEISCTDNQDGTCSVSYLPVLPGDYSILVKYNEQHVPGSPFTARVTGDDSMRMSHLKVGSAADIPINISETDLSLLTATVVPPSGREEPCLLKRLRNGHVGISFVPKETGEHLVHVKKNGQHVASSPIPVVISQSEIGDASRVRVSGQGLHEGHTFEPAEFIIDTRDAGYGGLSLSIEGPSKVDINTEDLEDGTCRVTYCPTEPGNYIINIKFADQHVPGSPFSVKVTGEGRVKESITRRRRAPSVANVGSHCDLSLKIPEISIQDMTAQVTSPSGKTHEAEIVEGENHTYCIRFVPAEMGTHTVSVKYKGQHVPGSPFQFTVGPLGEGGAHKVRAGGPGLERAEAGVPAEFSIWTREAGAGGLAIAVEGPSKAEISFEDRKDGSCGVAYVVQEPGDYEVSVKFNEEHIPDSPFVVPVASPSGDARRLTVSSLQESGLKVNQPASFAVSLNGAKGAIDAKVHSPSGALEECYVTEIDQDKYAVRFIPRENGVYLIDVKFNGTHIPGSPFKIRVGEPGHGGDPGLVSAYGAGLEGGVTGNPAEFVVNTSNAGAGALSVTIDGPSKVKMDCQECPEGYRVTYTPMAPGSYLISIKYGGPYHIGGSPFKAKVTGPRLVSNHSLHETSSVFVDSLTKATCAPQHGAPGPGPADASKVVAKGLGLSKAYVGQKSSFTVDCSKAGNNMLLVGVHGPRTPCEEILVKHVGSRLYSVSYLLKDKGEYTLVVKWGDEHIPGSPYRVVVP
# [3] = molecular target: aberrant FLNA in Alzheimer's disease (Homo sapiens, UniProt P21333); conditions: reported; cited from earlier work
# aberrant FLNA in Alzheimer's disease, sequence (P21333 whole entry): as the sequence (P21333 whole entry, species assumed) above
# [4] = test system: seizures in individuals with TSC or FCDII; conditions: clinical trial, cited from earlier work
# Neuro2a cells = experiment: S6 phosphorylation immunoblot in transfected Neuro2a cells; type: cell-based; conditions: in vitro, Neuro2a cells transfected with shRNA
# Procedure: Neuro2a cells were grown at 37° C. with 5% CO2 in a complete media consisting of high glucose DMEM (Gibco, #11965-092), 5% heat-inactivated fetal bovine serum (Gibco, #16140071), and 1% penicillin-streptomycin. Cells were plated in 12 well culture plates (Corning, #0720082) and transfected when they reached ˜70% confluence. Transfection was done using PolyJet transfection reagent (Signagen, SL100688) according to the manufacturer's instructions. Cells were lysed 72 hours after transfection for all experiments.
# Human and mouse samples were lysed in RIPA buffer (Thermo fisher, #89900) with protease/phosphatase inhibitor cocktail (Cell Signaling Technology, #5872), 5 mM EDTA, and 20 units/ml DNase I (Roche). All lysates were run on Tris-glycine gels (Bio-Rad, #456-1086 for mouse samples and #456-1046 for human samples). Proteins were transferred to PVDF and blocked in 5% milk and incubated with primary antibodies (concentrations of primary antibody are listed in Table 5). HRP-conjugated anti-rabbit or anti-mouse were used as secondary antibodies. Phosphorylated and total proteins were blotted on the same membrane after stripping (Thermo fisher, #21059). All density measurements were performed using NIH Image J software. In the case where cross-blot normalization was required a reference sample was loaded on each gel to account for inter-gel variability (FIGS. 11A-11B).
# [5] = 6 mg/kg i.p. twice daily, P8 to P28
# [6] = 12 mg/kg i.p. twice daily, P8 to P28
# [7] = treatment after seizure onset, P29 to P54
molecule,measurement,setting,value
CN1CCC2(CC1)NCC(=O)N2Cc1ccccc1 [PTI-125],dendritic dysmorphogenesis,[1]; [5],partially rescued
same,neuronal soma size,[1]; [5],partially rescued
same,dendritic dysmorphogenesis,[1]; [6],partially rescued
same,neuronal soma size,[1]; [6],partially rescued
same,dendritic dysmorphogenesis,[1]; [7],"partially, but significantly, rescued"
same,increased soma size,[1]; [7],"partially, but significantly, rescued"
same,cell misplacement (neuronal placement),"[1]; treatment starting at P8, 12 mg/kg, brain sections from recorded mice",not affected; also recorded: did not rescue
same,seizure frequency,"Rheb^CA-expressing mice; 12 mg/kg i.p. twice daily P8-P65, recorded P61 to P66, vehicle 5.1",1.4 seizures/day
same,Number of mice without/with seizures per condition,"Rheb^CA-expressing mice; FIG. 6A, all treatments combined, vehicle 3/29",11/32
same,overall reduction in seizure frequency compared to vehicle-treated littermates,Rheb^CA-expressing mice; all PTI-125 treatments combined (n=32 vs n=27),66%
same,seizure-free mice,"Rheb^CA-expressing mice; all PTI-125 treatments combined, vehicle 11%",35%
same,lowering of seizure frequency compared to vehicle-treated mice,"Rheb^CA-expressing mice; treatment P29 to P54, recorded P50-P54",69% and 67%
same,seizure frequency,"Rheb^CA-expressing mice; treatment P29 to P54, recorded P50-P54, vehicle 2.7",0.84 seizures/day
same,reduction of seizure frequency,"Rheb^CA-expressing mice; treatment prior to seizure onset, 12 mg/kg P8-P65, vs vehicle",73%
same,reduction in seizure frequency prior to vs after treatment in the same mice,"Rheb^CA-expressing mice; young adult mice (P61-P106), 33-day treatment",60%
same,change of seizure frequency over time,"Rheb^CA-expressing mice; young adult mice switched from vehicle to PTI-125 after 12 days of recordings, 20-day treatment",did not have the increase in seizure frequency observed in the vehicle group
same,mean seizure frequency,"Rheb^CA-expressing mice; young adult mice, after 33-day treatment, 3.9 prior to treatment",1.6 seizures/day
same,phospho-S6 expression in the cortex,"phospho-S6; nonelectroporated mice, 12 mg/kg",not affected
same,phospho-S6 intensity in brain sections,"phospho-S6; recorded Rheb^CA mice, 12 mg/kg P8-P65",not affected
same,body weight,[2],did not affect
same,affinity for native FLNA,native FLNA,picomolar
same,affinity for aberrant FLNA in Alzheimer's disease,[3],femtomolar
CO[C@H]1C[C@@H]2CC[C@@H](C)[C@@](O)(O2)C(=O)C(=O)N2CCCC[C@H]2C(=O)O[C@H]([C@H](C)C[C@@H]2CC[C@@H](OCCO)[C@H](OC)C2)CC(=O)[C@H](C)/C=C(\C)[C@@H](O)[C@@H](OC)C(=O)[C@H](C)C[C@H](C)/C=C/C=C/C=C/1C [everolimus],patients with reduced seizure frequency,[4]; highest dose,40%
same,patients who saw no improvements,[4],60%
same,side-effects,[4],had side-effects
"Flna shRNA: short hairpin RNA against Flna, expressed from plasmid; sequence 5′ CCTATGAAGCTGGAACCTATA 3′ (expressed from plasmid pCGLH)",total dendritic length,"[1]; Rheb^CA neurons co-expressing shRNA by E15 IUE, P28, 194% with control shRNA",130 % of control
same,soma size,"[1]; Rheb^CA neurons co-expressing shRNA by E15 IUE, P28, 372% with control shRNA",250 % of control
same,misplaced cells (neuronal misplacement),"[1]; Rheb^CA neurons co-expressing shRNA by E15 IUE, analysed at P28, 50% with control shRNA, 2% in control",23%
same,death of mice,"Rheb^CA-expressing mice; out of 10 mice, 4 out of 16 died in the control group",no mice died
same,lowering of seizure frequency compared to luciferase shRNA,Rheb^CA-expressing mice; video-EEG for 5 days starting at P61,83%
same,mean seizure frequency,"Rheb^CA-expressing mice; video-EEG for 5 days starting at P61, 12.6 with luciferase shRNA",2.2 seizures/day
same,increased phospho-S6 intensity in vivo,phospho-S6; GFP+ Rheb^CA-expressing neurons in EEG-recorded mice,did not prevent
same,Rheb^CA-induced increased S6 phosphorylation,Neuro2a cells,did not reduce
